Data reported in patent US11324852B2, “Coated silk films, methods for the production thereof and uses thereof” (AMSILK GMBH, priority 2014, dated 2022).
Structures can show the parent of a compound that is named as a salt.

How the values were obtained:
Type in all cases: physicochemical
C16 films = assay: Remote loading of drugs and model protein lysozyme into C16 films; settings: 30 min, room temperature
Procedure: Loading efficiency and loading were determinate for lysozyme dissolved in high purified water (HPW). For the remote loading of lysozyme, the loading solution was prepared dissolving 1% w/v lysozyme in high purified water. Three different films were weighted, following by incubation in a 6-well plate with 5 ml of the loading solution at room temperature, at 2 rpm. After 30 min, films were removed and the loading solution was diluted 1:20 and analysed photometrically at 280 nm recording its spectra using a spectrophotometer (Agilent Technologies 8453, Oberhaching, Germany). A calibration curve was prepared using the original lysozyme solution. The same method was performed using as incubation medium of 0.5% and 0.25% of lysozyme.
A) Low molecular weight drugs (tetracain hydrochloride, ethacridine monohydrate lactate, nipagin and phenol red) were dissolved at a concentration of 0.5 mg/ml in highly purified water (HPW), Tris 5 mM pH 7, and formate buffer 5 mM, pH 3, respectively. After dissolving the drugs, all solutions were filtered through a 0.45 μm cellulose acetate filter.
For the remote loading process, the previously cast C16 films were cut into pieces, weighed and placed into 24-well plates. At least four C16 film samples were incubated with 1 ml of each drug solutions for 30 min at gently agitation of 2 rpm at room temperature. After removing the C16 films, the quantities of the loaded drugs were calculated indirectly by measuring the remaining loading solutions photometrically. Finally, the loading and the loading-efficiency for each experimental condition were calculated (see Table 1).
For the remote loading of the model protein lysozyme, the loading solution was prepared by dissolving 1% w/v lysozyme in HPW. As before, three different C16 films were weighed. Afterwards, C16 films were incubated in a 6-well plate with 5 ml of the loading solution at gently agitation of 2 rpm at room temperature. After 30 min, C16 films were removed and the loading solution was analysed photometrically at 280 nm. Spectra were recorded using a spectrophotometer. At physiological pH, spider silk films are negatively charged.
B) For the remote loading of Lysozyme, the loading solution was prepared dissolving 1% w/v lysozyme in high purified water (HPW). Three different C16 films were weighted, followed by incubation in a 6-well plate with 5 ml of the loading solution at gently agitation of 2 rpm at room temperature. After 30 min, C16 films were removed and the loading solution was diluted 1:20 and analyzed photometrically at 280 nm. In particular, a spectra of this solution was subsequently recorded using a spectrophotometer (Agilent Technologies 8453, Oberhaching, Germany). A calibration curve was prepared using the original lysozyme solution. The same method was performed using an incubation medium with 0.5% and 0.25% of Lysozyme.

[1] = Cumulative release of paracetamol, FITC-dextran and FITC-BSA from directly loaded C16 films; settings: for Release from C16 films (in words): 0.01 M PBS buffer pH 7.4, 37° C.
Procedure: Paracetamol: Before casting the C16 films, paracetamol was added and dissolved directly in 2.5% C16 protein solution. The resulting films contained each 2.5 mg of paracetamol. Three film samples containing paracetamol were incubated in 0.01 M PBS buffer pH 7.4 at 37° C. At predetermined time points, the buffer was removed and replaced with fresh medium. The release buffer was analyzed by NanoDrop 2000 (peqlab, Erlanger, Germany). […] Each film contained 1.3 mg of FITC-BSA or FD. Films containing the model drugs (n=3) were incubated in 0.01 M PBS buffer pH 7.4 at 37° C. At predetermined time points the buffer was removed and replaced with fresh medium. The release buffer was analyzed using the fluorescence spectrophotometer Cary Eclipse Varian (Agilent technology, Böblingen, Germany) applying an excitation wavelength of 490 nm and an emission of 520 nm. The drug which was not released was quantified by dissolving the film matrix in a 6 M GdmSCN solution. This solution was subsequently analyzed using a fluorescence spectrophotometer.
A) Spray-dried C16 proteins were dissolved in 6 M guanidinium thiocyanate and subsequently dialyzed against 5 mM Tris/HCl buffer, pH 8 at 4° C. The pH was measured using a pH meter. The protein solution was centrifuged at 10000 rpm for 15 min and filtered through a 0.45 μm cellulose acetate filter. The protein concentration was determined photometrically. The protein solution was finally diluted with Tris buffer to 2.5% w/v. Before casting the films, paracetamol was added and dissolved directly in the protein solution. Films (2.5×3 cm) were cast on the plastic foil A5 22/5B from mtv-messtechnik (Koeln, Germany) and dried in a laminar flow cabinet at room temperature overnight at 45% relative humidity. The resulting films contained 2.5 mg of drug. Three film samples containing paracetamol were incubated in 0.01 M PBS buffer, pH 7.4 at 37° C. At predetermined time points, the buffer was removed and replaced with fresh medium. The release buffer was analysed using a UV-Vis spectrophotometer.
Films were cast as described above. Every film contained 25 mg of C16 and 1.3 mg of FITC-BSA or FD, respectively. Films containing the substances were incubated in 0.01 M PBS buffer, pH 7.4 at 37° C. At predetermined time points, the buffer was removed and replaced with fresh medium. The release buffer was analysed using a fluorescence spectrophotometer applying an excitation wavelength of 490 nm and an emission of 520 nm. The substance which was not released was quantified by dissolving the film matrix in a 6M GdmSCN solution. This solution was subsequently analysed using a fluorescence spectrophotometer. The sum of the non-released substance and the released amount of substance was calculated as 100%. […] After direct loading with FITC-BSA, C16 films released almost 65% of the model protein within one week. […] The cumulative release of paracetamol, FITC-dextran 21 kDa (FD) and FITC-BSA from C16 films casted from an aqueous solution is shown in FIG. 6.

[2] = Isoelectric point (pI) of spider silk polypeptides
[3] = HPW (highly purified water), LMW drugs 0.5 mg/ml, lysozyme 1% w/v
[4] = pH 3 (formate buffer 5 mM), drug 0.5 mg/ml
[5] = pH 7 (Tris 5 mM), drug 0.5 mg/ml

Loading (L) (C16 films; [3]) | Loading efficiency (LE) (C16 films; [3]) | Loading (L) (C16 films; [4]) | Loading efficiency (LE) (C16 films; [4]) | Loading (L) (C16 films; [5]) | Loading efficiency (LE) (C16 films; [5]) | Molecule | also measured
3.8 ± 1.9% | 35.1 ± 8.3% | 0.0 ± 0.0% | 0.0 ± 0.0% | 2.5 ± 07% | 24.3 ± 7.7% | CCCCNc1ccc(C(=O)OCCN(C)C)cc1 [Tetracaine HCl, tetracain hydrochloride] | –
– | – | – | – | – | – | CC(=O)Nc1ccc(O)cc1 [paracetamol] | Release from C16 films (in words) ([1]; direct loading): completely release
3.3 ± 0.3% | 54.2 ± 3.2% | 2.4 ± 0.5% | 16.5 ± 5.4% | 3.5 ± 1.0% | 45.8 ± 2.7% | CC(O)C(=O)O.CCOc1ccc2nc3cc(N)ccc3c(N)c2c1.O [Ethacridine lact., ethacridine monohydrate lactate] | –
0.8 ± 0.3% | 9.6 ± 4.3% | 0.5 ± 0.2% | 5.3 ± 2.3% | 0.0 ± 0.0% | 0.0 ± 0.0% | COC(=O)c1ccc(O)cc1 [Nipagin, nipagin] | –
– | – | – | – | – | – | FITC-BSA: FITC-BSA (MW 66.5 kDa), model drug / model protein | Release after the burst (in words) ([1]; after day 1, 0.01 M PBS pH 7.4, 37° C.): constant amount per day; Release from C16 films (in words) ([1]; direct loading): slower; Burst release from C16 films ([1]; on day 1, direct loading, 0.01 M PBS pH 7.4, 37° C.): approx. 30%; Cumulative release from C16 films ([1]; within one week, direct loading, 0.01 M PBS pH 7.4, 37° C.): ~65%
– | – | – | – | – | – | C16: silk polypeptide which comprises 16 repeats of the sequence of module C (SEQ ID NO: 21) (protein) GSSAAAAAAAASGPGGYGPENQGPSGPGGYGPGGPGSSAAAAAAAASGPGGYGPENQGPSGPGGYGPGGPGSSAAAAAAAASGPGGYGPENQGPSGPGGYGPGGPGSSAAAAAAAASGPGGYGPENQGPSGPGGYGPGGPGSSAAAAAAAASGPGGYGPENQGPSGPGGYGPGGPGSSAAAAAAAASGPGGYGPENQGPSGPGGYGPGGPGSSAAAAAAAASGPGGYGPENQGPSGPGGYGPGGPGSSAAAAAAAASGPGGYGPENQGPSGPGGYGPGGPGSSAAAAAAAASGPGGYGPENQGPSGPGGYGPGGPGSSAAAAAAAASGPGGYGPENQGPSGPGGYGPGGPGSSAAAAAAAASGPGGYGPENQGPSGPGGYGPGGPGSSAAAAAAAASGPGGYGPENQGPSGPGGYGPGGPGSSAAAAAAAASGPGGYGPENQGPSGPGGYGPGGPGSSAAAAAAAASGPGGYGPENQGPSGPGGYGPGGPGSSAAAAAAAASGPGGYGPENQGPSGPGGYGPGGPGSSAAAAAAAASGPGGYGPENQGPSGPGGYGPGGP | pI [2]: 3.48

Molecule | Loading (L) (C16 films; [3]) | Loading efficiency (LE) (C16 films; [3]) | Loading (L) (C16 films; [4]) | Loading efficiency (LE) (C16 films; [4]) | Loading (L) (C16 films; [5]) | Loading efficiency (LE) (C16 films; [5]) | also measured
Lysozyme: model protein, positively charged at physiological pH | 39.8 ± 1.8% | 22.8 ± 0.7% | – | – | – | – | –
